“Also recorded” adds a separate entry of the source. Like-named read-outs stand apart in the source and are kept apart here.
Experiments:
[1] = test system: chronic tension-type headache; conditions: prophylactic; cited from earlier work
[2] = test system: chronic tension-type headache; assay: Prophylactic treatment with reboxetine in patients with chronic tension-type headache (headache diary); format: in vivo, human
Excerpt: Prophylactic treatment with reboxetine has been given to 10 patients with chronic tension-type headache treated at the outpatient headache clinic at the Department of Neurology, Glostrup Hospital, University of Copenhagen, Denmark. There were 5 women and 5 men with a mean age of 44 years. All patients had been suffering from chronic tension-type headache for several years, and had been treatment resistant to other headache prophylactics. Before treatment, the patents underwent a general and a neurological examination and completed a diagnostic headache diary during a four-week run-in period.
The patients filled in a headache diary before and during treatment recording headache characteristics, accompanying symptoms and intake of analgesics.
In total, 10 patents have been treated with reboxetne (as the methanesulphonate salt). […] The patents were instructed to take the tablet two to three hours before bedtime. Four patients stopped treatment within the first 4 weeks due to side effects. […] Efficacy was estimated to be very good in 66% of the patients that fulfilled the treatment series.

[3] = patients with chronic tension-type headache, 4 mg to 8 mg once daily, headache diary

Compound | reduces headache [1] [%] | side effects [1] | Efficacy estimated to be very good, share of the patients that fulfilled the treatment series ([2]; 6 patients that completed the treatment series) [%] | side effects ([2]; 10 patients treated, 4 mg to 8 mg once daily) | reduction in consumption of analgesics [2, 3] [%] | reduction in intensity [2, 3] [%] | reduction of AUC (intensity×duration) [2, 3] [%] | Headache frequency reduced ([2]; patients with chronic tension-type headache, initial dose 4 mg once daily, final dose 8 mg once daily, headache diary before vs during treatment) [%] | patients that stopped treatment due to side effects ([2]; within the first 4 weeks, 10 patients treated)
CN(C)CCC=C1c2ccccc2CCc2ccccc21 [Amitriptyline] | 30 | many side effects, such as sedation and dryness of mouth |  |  |  |  |  |  | 
CCOc1ccccc1OC(c1ccccc1)C1CNCCO1 (stereo not drawn) [reboxetne, 2-[α-(2-ethoxy)-phenoxy-benzyl]morpholine] |  |  | 66 | Sleeping problems and dizziness were the most common side effect; also recorded: No serious side effects were reported | 55 | 78 | 47 | 10 | Four

— patent US20040048860A1, “Use of selective noradrenaline reuptake inhibitors for the treatment of tension-type headache” (priority 2000, published 2004)
